Source: patent US9399631B2, “Polyphenol proteasome inhibitors, synthesis, and methods of use” (UNIVERSITY OF SOUTH FLORIDA, priority 2003, dated 2016)

Experiments:
[1] = target: T1, 20S eukaryotic proteasome (Oryctolagus cuniculus, UniProt G1T4Q9); assay: Inhibition of chymotrypsin-like activity of purified eukaryotic 20S proteasome (Suc-Leu-Leu-Val-Tyr-AMC); type: biochemical, rabbit; conditions: for IC50: chymotrypsin-like activity, rabbit 20S proteasome
T1 construct: purchased BOSTON BIOCHEM (Cambridge, Mass.)
T1 sequence (G1T4Q9 1-263): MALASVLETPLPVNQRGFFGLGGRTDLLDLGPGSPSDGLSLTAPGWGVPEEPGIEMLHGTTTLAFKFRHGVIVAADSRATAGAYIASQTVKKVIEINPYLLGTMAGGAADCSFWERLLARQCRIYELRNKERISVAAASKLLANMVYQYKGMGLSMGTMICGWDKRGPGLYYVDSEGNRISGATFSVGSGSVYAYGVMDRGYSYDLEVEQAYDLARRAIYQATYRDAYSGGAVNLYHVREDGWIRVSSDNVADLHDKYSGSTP
Method in brief: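 Purified rabbit 20S proteasome (0.02 μg) incubated with 20 μM Suc-LLVY-AMC for 30 min at 37° C in Tris-HCl pH 7.5, with or without compound. Chymotrypsin-like activity read as released AMC fluorescence (Ex 380 or 355 nm/Em 460 nm).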

LNCaP cells = assay: Flow cytometry cell cycle analysis, LNCaP cells; type: cell-based, human; conditions: 10 μM, 24 hours
Method: Flow Cytometry. Cell cycle analysis based on DNA content was performed as in An et al. (An, B. et al. Cell Death Differ, 1998, 5:1062-75). At each time point, cells were harvested, counted, and washed twice with PBS. Cells (5×10^6) were suspended in 0.5 ml PBS, fixed in 5 ml of 70% ethanol overnight at −20° C., centrifuged, resuspended again in 1 ml of propidium iodide staining solution (50 μg propidium iodide, 100 units RNase A and 1 mg glucose per ml PBS), and incubated at room temperature for 30 minutes. The cells were then analyzed with FACScan (Becton Dickinson Immunocytometry, Calif.), ModFit LT and WinMDI V.2.8 cell cycle analysis software (Verity Software; Topsham, Me.). The cell cycle distribution is shown as the percentage of cells containing G1, S, G2, and M phase DNA judged by propidium iodide staining The apoptotic population is determined as the percentage of cells with sub-G1 DNA content (<G1).
It has been shown that overexpression of p27 and IκB-α results in G1 arrest. If increased levels of these proteasome target proteins by synthetic GTPs are functional, it would be expected to see growth arrest of tumor cells in G1 phase. To test this hypothesis, asynchronous prostate LNCaP cells were treated with 10 μM of synthetic (+)-EGCG or (+)-GCG, along with each respective natural GTP as control, for 24 hours. Cells were then harvested, and analyzed by cell cycle analysis by flow cytometry. […] Growth arrest was determined by the increase in the percentage of the G1 population.

SMILES | IC50 [1] | increase in G1 arrest as compared to (−)-EGCG (LNCaP cells) | increase of G1 population (G1 arrest) (LNCaP cells) | reversal of proteasome inhibition by SDS ([1]; 1 μM, 0.01% SDS added after 1 hour (SDS-post)) | inhibition of chymotrypsin-like activity ([1]; 1 μM, 5 min) | inhibition of chymotrypsin-like activity ([1]; 1 μM, 30 min) | inhibition of chymotrypsin-like activity ([1]; 1 μM, after 1 to 3 hours) | inhibition of chymotrypsin-like activity ([1]; 1 μM, no SDS) | inhibition of chymotrypsin-like activity ([1]; 1 μM, pre-incubation with 0.01% SDS for 1 hour (SDS-pre))
O=C(N[C@@H]1Cc2c(O)cc(O)cc2O[C@@H]1c1cc(O)c(O)c(O)c1)c1cc(O)c(O)c(O)c1 [(−)-EGCG-amide, (−)-[2R,3R]-N-[5,7-Dihydroxy-2-(3,4,5-trihydroxyphenyl)-chroman-3-yl]-3,4,5-trihydroxybenzamide] | 320 nM | – | – | – | – | – | – | – | –
O=C(OC1Cc2c(O)cc(O)cc2OC1c1cc(O)c(O)c(O)c1)c1cc(O)c(O)c(O)c1 (single isomer, unassigned; (+)) [(+)-EGCG] | 170 nM | approximately 30% | 18% | – | – | – | – | – | –
O=C(OC1Cc2c(O)cc(O)cc2OC1c1cc(O)c(O)c(O)c1)c1cc(O)c(O)c(O)c1 (single isomer, unassigned; (+)) [(+)-GCG] | 270 nM | – | ~14% | – | – | – | – | – | –
O=C(O[C@@H]1Cc2c(O)cc(O)cc2O[C@@H]1c1cc(O)c(O)c(O)c1)c1cc(O)c(O)c(O)c1 [(−)-EGCG, (−)-epigallocatechin-3-gallate, reference compound] | 205 nM | – | ~14% | could not reverse the EGCG-mediated proteasome inhibition | 35% | 62% | 70-80% | up to 75% | 10-20%
